{"source": "patent US20080058373A1", "about": "“Compositions and Methods for Treating or Preventing Glaucoma or Progression Thereof” (priority 2006, published 2008)", "key": {"[1]": {"test_system": "New Zealand White rabbits", "assay": "Ophthalmic observations (slit lamp, McDonald Shadduck system) in the rabbit IOP study", "format": "in vivo", "set-up": "key to Cornea Score: 1: Some loss of transparency. Only the epithelium and/or the anterior half of the stoma are involved. The underlying structures are clearly visible although some cloudiness may be readily apparent; key to Conjunctival congestion Score: A flushed, reddish color predominantly confined to the palpebral conjunctiva with some perilimbal injection but primarily confined to the lower and upper parts of the eye from the 4:00 to 7:00 and 11:00 to 1:00 positions; key to Ophthalmic Observation (Slit-Lamp): AN: Appeared normal", "method": "Prior to placement on study, each animal underwent a pre-treatment ophthalmic examination (slit lamp and indirect ophthalmoscopy). Observations were scored according to the McDonald Shadduck system and recorded using a standardized data collection sheet.\nOphthalmic examinations (slit lamp) were performed prior to the first dosing on Days 5, 12, 22, 26, and 33. Ocular findings were scored according to the McDonald Shadduck system and recorded using a standardized data collection sheet."}, "[2]": {"test_system": "rabbit eye (anterior chamber paracentesis)", "assay": "Rabbit paracentesis model of anterior-segment inflammation (overall conclusion)", "format": "in vivo", "conditions": "0.1%, 0.5% and 1% topical formulations", "excerpt": "Inflammatory processes are multidimensional in origin, and are characterized by complex cellular and molecular events involving numerous components all of which have not been identified. Prostaglandins are among these mediators and play an important role in certain forms of ocular inflammation. Paracentesis of the anterior chamber in the rabbit eye induces inflammatory reaction due to the disruption of the blood-aqueous barrier (“BAB”), which is mediated, at least in part, by prostaglandin E2 [References 1-3 below]. Intraocular or topical administration of PGE2 disrupts the BAB. [Reference 4, below] The treatment schedule adopted in this study was similar to the clinical NSAIDs (Ocufen) treatment schedule used by surgeons for patients before cataract surgery.\nEach rabbit was placed in a restraint device and tagged with the alphanumeric code. The formulations were instilled (50 μl) into the conjunctival sac of both eyes 180, 120, 90 and 30 min before the first paracentesis; then 15, 30, 90 min after the first paracentesis. […]\nPupillary diameter, PGE2, protein, PMN, and MPO were expressed as mean±SEM. […] Clinical score was expressed as % of eyes and the statistical analysis was performed using Kruskal-Wallis followed by a Dunn post hoc test. […]"}, "[3]": {"conditions": "10 mg/g, treated right eye, Day 5"}}, "note": "“Also recorded” adds a separate entry of the source."}
{"smiles": "Cc1ccc2c(NCC(O)(CC(C)(C)c3cc(F)cc4c3OCC4)C(F)(F)F)cccc2n1", "note": "(stereo not drawn)", "values": [{"measurement": "Slit-lamp ocular findings (other findings)", "setting": "[1]; 1 mg/g suspension, dosed right eye (Group D, No. 3043)", "value": "a subconjunctival hemorrhage"}, {"measurement": "Ophthalmic Observation (Slit-Lamp)", "setting": "[1]; 1 mg/g, treated right eye, Day 5, 12, 22, 26", "value": "AN"}, {"measurement": "Ophthalmic Observation (Slit-Lamp)", "setting": "[1]; 1 mg/g, treated right eye, Day 5, 12, 22, 26, 33", "value": "AN"}, {"measurement": "Ophthalmic Observation (Slit-Lamp)", "setting": "[1]; 1 mg/g, treated right eye, Day 5, 12, 26, 33", "value": "AN"}, {"measurement": "Conjunctival congestion Score", "setting": "[1]; 1 mg/g, treated right eye, Day 22", "value": 1}, {"measurement": "Conjunctival congestion Score", "setting": "[1]; 5 mg/g, treated right eye, Day 5", "value": 1}, {"measurement": "Ophthalmic Observation (Slit-Lamp)", "setting": "[1]; 5 mg/g, treated right eye, Day 5, 12", "value": "AN"}, {"measurement": "Ophthalmic Observation (Slit-Lamp)", "setting": "[1]; 5 mg/g, treated right eye, Day 5, 12, 22", "value": "AN"}, {"measurement": "Ophthalmic Observation (Slit-Lamp)", "setting": "[1]; 5 mg/g, treated right eye, Day 5, 12, 22, 26, 33", "value": "AN"}, {"measurement": "Ophthalmic Observation (Slit-Lamp)", "setting": "[1]; 5 mg/g, treated right eye, Day 5, 12, 26, 33", "value": "AN"}, {"measurement": "Ophthalmic Observation (Slit-Lamp)", "setting": "[1]; 5 mg/g, treated right eye, Day 5, 12, 33", "value": "AN"}, {"measurement": "Ophthalmic Observation (Slit-Lamp)", "setting": "[1]; 5 mg/g, treated right eye, Day 12, 22, 26, 33", "value": "AN"}, {"measurement": "Conjunctival congestion Score", "setting": "[1]; 5 mg/g, treated right eye, Day 22", "value": 1}, {"measurement": "Conjunctival congestion Score", "setting": "[1]; 5 mg/g, treated right eye, Day 22, 26", "value": 1}, {"measurement": "Conjunctival congestion Score", "setting": "[1]; 5 mg/g, treated right eye, Day 26", "value": 1}, {"measurement": "Slit-lamp ocular findings (other findings)", "setting": "[1]; 10 mg/g suspension, dosed right eye (Group B, No. 3083)", "value": "a pinpoint corneal scar"}, {"measurement": "Ophthalmic Observation (Slit-Lamp)", "setting": "[1]; [3]", "value": "AN"}, {"measurement": "Surface area of cornea involvement Score", "setting": "[1]; [3]", "value": "1 (1-25% area of stromal cloudiness.)"}, {"measurement": "Conjunctival congestion Score", "setting": "[1]; 10 mg/g, treated right eye, Day 5, 12", "value": 1}, {"measurement": "Ophthalmic Observation (Slit-Lamp)", "setting": "[1]; 10 mg/g, treated right eye, Day 5, 12, 22, 26, 33", "value": "AN"}, {"measurement": "Ophthalmic Observation (Slit-Lamp)", "setting": "[1]; 10 mg/g, treated right eye, Day 5, 12, 22, 33", "value": "AN"}, {"measurement": "Ophthalmic Observation (Slit-Lamp)", "setting": "[1]; 10 mg/g, treated right eye, Day 5, 22, 26, 33", "value": "AN"}, {"measurement": "Cornea Score", "setting": "[1]; 10 mg/g, treated right eye, Day 5, pinpoint corneal scar", "value": "1^(2)"}, {"measurement": "Conjunctival congestion Score", "setting": "[1]; 10 mg/g, treated right eye, Day 12", "value": 1}, {"measurement": "Ophthalmic Observation (Slit-Lamp)", "setting": "[1]; 10 mg/g, treated right eye, Day 12, 22, 26, 33", "value": "AN"}, {"measurement": "Ophthalmic Observation (Slit-Lamp)", "setting": "[1]; 10 mg/g, treated right eye, Day 22, 26, 33", "value": "AN"}, {"measurement": "Conjunctival congestion Score", "setting": "[1]; 10 mg/g, treated right eye, Day 26", "value": 1}, {"measurement": "Anti-inflammatory activity in the rabbit paracentesis model (preliminary conclusion)", "setting": "[2]", "value": "active in this model; also recorded: as effective an anti-inflammatory drug as some of the commonly accepted prior-art steroids or NSAID"}]}
{"smiles": "C[C@@H]1C[C@H]2[C@@H]3CCC4=CC(=O)C=C[C@]4(C)[C@@]3(F)[C@@H](O)C[C@]2(C)[C@@]1(O)C(=O)CO", "note": "[dexamethasone, reference compound]", "values": [{"measurement": "Conjunctival congestion Score", "setting": "[1]; 0.1% 4 × daily, treated right eye, Day 5", "value": 1}, {"measurement": "Ophthalmic Observation (Slit-Lamp)", "setting": "[1]; 0.1% 4 × daily, treated right eye, Day 5, 12", "value": "AN"}, {"measurement": "Ophthalmic Observation (Slit-Lamp)", "setting": "[1]; 0.1% 4 × daily, treated right eye, Day 5, 12, 22", "value": "AN"}, {"measurement": "Ophthalmic Observation (Slit-Lamp)", "setting": "[1]; 0.1% 4 × daily, treated right eye, Day 5, 12, 22, 26", "value": "AN"}, {"measurement": "Ophthalmic Observation (Slit-Lamp)", "setting": "[1]; 0.1% 4 × daily, treated right eye, Day 5, 12, 22, 26, 33", "value": "AN"}, {"measurement": "Ophthalmic Observation (Slit-Lamp)", "setting": "[1]; 0.1% 4 × daily, treated right eye, Day 5, 12, 26, 33", "value": "AN"}, {"measurement": "Ophthalmic Observation (Slit-Lamp)", "setting": "[1]; 0.1% 4 × daily, treated right eye, Day 12, 22, 26", "value": "AN"}, {"measurement": "Conjunctival congestion Score", "setting": "[1]; 0.1% 4 × daily, treated right eye, Day 22", "value": 1}]}
